Measured values: paper PMC5361737, “Potent and Selective KDM5 Inhibitor Stops Cellular Demethylation of H3K4me3 at Transcription Start Sites and Proliferation of MM1S Myeloma Cells” (Cell Chemical Biology, 2017)
Entries after “also recorded” stand apart in the source; their conditions may differ. Read-outs that look alike come from different tables or passages of the source.

Assays:
KDM4C = biological target: T1, KDM4C (Homo sapiens, UniProt Q9H3R0); assay: 2-Oxoglutarate oxygenase assay panel, AlphaScreen assay; type: biochemical; settings: AlphaScreen assay; ± SEM
T1 sequence (Q9H3R0 1-1056): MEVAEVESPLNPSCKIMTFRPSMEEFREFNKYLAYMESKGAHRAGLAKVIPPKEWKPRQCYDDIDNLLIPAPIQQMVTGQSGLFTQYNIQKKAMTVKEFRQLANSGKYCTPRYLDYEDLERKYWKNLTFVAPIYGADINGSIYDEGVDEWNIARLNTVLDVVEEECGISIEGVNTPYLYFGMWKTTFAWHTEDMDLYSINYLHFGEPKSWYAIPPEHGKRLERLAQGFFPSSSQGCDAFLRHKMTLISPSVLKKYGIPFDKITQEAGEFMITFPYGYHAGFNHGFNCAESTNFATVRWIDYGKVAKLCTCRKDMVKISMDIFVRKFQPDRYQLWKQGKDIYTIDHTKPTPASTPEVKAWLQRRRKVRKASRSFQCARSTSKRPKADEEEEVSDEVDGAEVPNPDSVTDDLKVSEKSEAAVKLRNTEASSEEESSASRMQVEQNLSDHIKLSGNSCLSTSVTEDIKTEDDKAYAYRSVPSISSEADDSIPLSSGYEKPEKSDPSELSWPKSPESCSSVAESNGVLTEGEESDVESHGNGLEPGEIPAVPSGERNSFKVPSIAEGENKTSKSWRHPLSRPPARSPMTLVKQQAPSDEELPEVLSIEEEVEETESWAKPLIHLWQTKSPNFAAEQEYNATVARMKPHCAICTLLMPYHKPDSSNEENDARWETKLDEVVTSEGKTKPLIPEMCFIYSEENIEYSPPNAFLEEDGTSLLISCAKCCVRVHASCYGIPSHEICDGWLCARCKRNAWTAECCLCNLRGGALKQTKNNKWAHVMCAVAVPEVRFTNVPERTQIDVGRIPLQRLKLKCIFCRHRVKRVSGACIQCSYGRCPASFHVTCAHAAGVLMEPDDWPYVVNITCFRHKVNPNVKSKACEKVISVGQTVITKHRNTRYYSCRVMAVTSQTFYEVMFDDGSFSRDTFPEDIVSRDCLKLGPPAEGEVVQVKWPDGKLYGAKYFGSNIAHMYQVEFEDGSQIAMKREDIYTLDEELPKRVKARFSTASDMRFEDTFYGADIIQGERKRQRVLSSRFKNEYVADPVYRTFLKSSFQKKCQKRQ

NO66 = NO66 (Homo sapiens, UniProt Q9H6W3); assay: 2-Oxoglutarate oxygenase assay panel, RapidFire MS assay; type: biochemical; settings: read-out: pIC50 NO66 (converted)
EGLN1 = EGLN1 (Homo sapiens, UniProt Q9GZT9); assay: 2-Oxoglutarate oxygenase assay panel, MALDI-TOF assay; type: biochemical; settings: read-out: pIC50 EGLN1 (converted)
[1] = system: endogenous KDM5 demethylases; assay: IF assay of endogenous H3K4me3 in untransfected HeLa cells; type: cell-based, human; settings: 48 hr
Description: In brief, cells were transiently transfected with either the FLAG-tagged WT or mutant demethylase described above, using Lipofectamine 2000 (Life Technologies). Four hours after transfection the cells were treated with serial dilutions of compound for 24 hr. The cells were subsequently fixed and stained with an anti-FLAG antibody (Sigma F3165) as well as an anti-methylated histone antibody (H3K4me3 Diagenode C15410003, H3K9me2 Abcam ab1220, H3K9me3 Abcam ab8898, H3K27me3 Millipore 07–449, or H3K36me2 Active Motif 61019). The secondary antibodies were labeled with either Alexa Fluor 488 or 568 (Life Technologies). Image acquisition was conducted using the Operetta High Content Imaging System (PerkinElmer) and image analysis was performed with the Columbus software (PerkinElmer). After the DAPI-stained nuclei were automatically identified, a minimum threshold for anti-FLAG intensity was set so that only cells highly expressing the demethylase were analyzed. Assays assessing the endogenous H3K4me3 methyl mark changes were performed accordingly without overexpressing KDM5 after compounds treatment for 48 hr.
Figure S1 related to Figure 2 Inhibition of KDM4/5 mediated H3K4me3
(A) EC50 curves of KDOAM-20, KDOAM-21 and KDOAM-32 in KDM5B and KDM4C (B)
and KDOAM-32 in untransfected HeLa cells.
(1 picture or pasted object on this page, not shown here)

PAMPA = type: in vitro ADME
[2] = Liver microsomes stability; type: in vitro ADME; settings: human liver microsomes
[3] = Liver microsomes stability; type: in vitro ADME; settings: rat liver microsomes
[4] = Chemical stability in Phosphate Buffer Saline; type: physicochemical; settings: PBS, 37°C, 24 hr
MM1S cells = assay: Cell-cycle analysis; type: cell-based, human
[5] = system: panel of 55 receptors and enzymes; assay: CEREP express panel of 55 common off-targets; type: binding; settings: 10 µM
A1 (h) = A1 (h) (Homo sapiens, UniProt P30542); assay: Cerep Express Panel, antagonist radioligand; type: binding; settings: read-out: % Inhibition of reference (10 µM)
beta 2 (h) = beta 2 (h) (Homo sapiens, UniProt P07550); assay: Cerep Express Panel, agonist radioligand; type: binding; settings: read-out: % Inhibition of reference (10 µM)
CB1 (h) = CB1 (h) (Homo sapiens, UniProt P21554); assay: Cerep Express Panel, agonist radioligand; type: binding; settings: read-out: % Inhibition of reference (10 µM)
CCK1 (CCKA) (h) = CCK1 (CCKA) (h) (Homo sapiens, UniProt P32238); assay: Cerep Express Panel, agonist radioligand; type: binding; settings: read-out: % Inhibition of reference (10 µM)
D2S (h) = D2S (h) (Homo sapiens, UniProt P14416); assay: Cerep Express Panel, antagonist radioligand; type: binding; settings: read-out: % Inhibition of reference (10 µM)
GABA (non-selective) = assay: Cerep Express Panel, agonist radioligand; type: binding
MC4 (h) = MC4 (h) (Homo sapiens, UniProt P32245); assay: Cerep Express Panel, agonist radioligand; type: binding; settings: read-out: % Inhibition of reference (10 µM)
Y1 (h) = Y1 (h) (Homo sapiens, UniProt P25929); assay: Cerep Express Panel, agonist radioligand; type: binding; settings: read-out: % Inhibition of reference (10 µM)
5-HT2B (h) = 5-HT2B (h) (Homo sapiens, UniProt P41595); assay: Cerep Express Panel, agonist radioligand; type: binding; settings: read-out: % Inhibition of reference (10 µM)
5-HT6 (h) = 5-HT6 (h) (Homo sapiens, UniProt P50406); assay: Cerep Express Panel, agonist radioligand; type: binding; settings: read-out: % Inhibition of reference (10 µM)
sst (non-selective) = assay: Cerep Express Panel, agonist radioligand; type: binding; settings: 10 µM
KDM3A = KDM3A (Homo sapiens, UniProt Q9Y4C1); assay: 2-Oxoglutarate oxygenase assay panel, AlphaScreen assay
KDM3A, sequence (Q9Y4C1 whole entry): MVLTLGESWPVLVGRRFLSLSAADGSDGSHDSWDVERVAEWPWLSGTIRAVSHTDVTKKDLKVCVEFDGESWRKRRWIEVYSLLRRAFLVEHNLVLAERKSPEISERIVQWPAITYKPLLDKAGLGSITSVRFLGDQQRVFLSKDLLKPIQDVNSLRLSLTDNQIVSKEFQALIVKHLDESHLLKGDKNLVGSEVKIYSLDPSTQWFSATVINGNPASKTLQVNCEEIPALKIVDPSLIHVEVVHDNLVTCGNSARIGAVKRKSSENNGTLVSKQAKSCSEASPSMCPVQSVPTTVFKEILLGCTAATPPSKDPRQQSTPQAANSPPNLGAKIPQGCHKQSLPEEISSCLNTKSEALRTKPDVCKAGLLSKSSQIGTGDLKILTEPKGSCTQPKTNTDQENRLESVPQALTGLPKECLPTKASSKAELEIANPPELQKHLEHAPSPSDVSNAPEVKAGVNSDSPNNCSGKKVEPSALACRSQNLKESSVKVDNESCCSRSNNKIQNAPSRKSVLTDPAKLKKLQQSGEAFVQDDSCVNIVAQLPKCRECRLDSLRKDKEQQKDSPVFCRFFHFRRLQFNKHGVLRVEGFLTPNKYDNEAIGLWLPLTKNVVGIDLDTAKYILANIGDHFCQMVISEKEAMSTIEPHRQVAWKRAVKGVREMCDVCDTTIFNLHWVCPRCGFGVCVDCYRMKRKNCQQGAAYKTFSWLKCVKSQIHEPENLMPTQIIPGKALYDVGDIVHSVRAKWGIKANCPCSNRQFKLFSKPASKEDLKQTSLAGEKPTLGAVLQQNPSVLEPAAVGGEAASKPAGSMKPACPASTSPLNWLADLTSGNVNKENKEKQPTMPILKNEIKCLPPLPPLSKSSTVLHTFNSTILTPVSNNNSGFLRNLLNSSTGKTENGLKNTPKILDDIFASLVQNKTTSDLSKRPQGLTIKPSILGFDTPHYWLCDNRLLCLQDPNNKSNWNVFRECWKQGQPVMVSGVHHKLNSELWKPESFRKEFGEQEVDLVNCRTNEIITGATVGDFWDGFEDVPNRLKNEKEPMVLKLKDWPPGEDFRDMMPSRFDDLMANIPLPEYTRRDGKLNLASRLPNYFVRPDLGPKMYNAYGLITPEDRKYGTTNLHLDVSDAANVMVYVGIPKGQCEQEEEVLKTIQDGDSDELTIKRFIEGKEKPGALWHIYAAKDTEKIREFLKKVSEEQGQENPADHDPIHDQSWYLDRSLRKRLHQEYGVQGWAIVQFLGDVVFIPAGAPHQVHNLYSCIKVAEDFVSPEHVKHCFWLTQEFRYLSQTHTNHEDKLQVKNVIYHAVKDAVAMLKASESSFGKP

EGLN1, sequence (Q9GZT9 whole entry, species assumed): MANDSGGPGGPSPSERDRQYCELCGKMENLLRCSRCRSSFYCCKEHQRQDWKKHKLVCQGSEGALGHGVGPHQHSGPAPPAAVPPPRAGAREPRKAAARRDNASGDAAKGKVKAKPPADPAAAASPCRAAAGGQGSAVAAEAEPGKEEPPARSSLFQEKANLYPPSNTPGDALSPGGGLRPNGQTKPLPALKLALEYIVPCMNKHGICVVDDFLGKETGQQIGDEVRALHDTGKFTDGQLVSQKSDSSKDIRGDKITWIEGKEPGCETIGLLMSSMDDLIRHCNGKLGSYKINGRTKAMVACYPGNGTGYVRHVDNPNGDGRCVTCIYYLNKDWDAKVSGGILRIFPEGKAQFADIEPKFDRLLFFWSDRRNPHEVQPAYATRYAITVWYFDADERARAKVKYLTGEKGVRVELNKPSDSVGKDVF
Y1 (h), sequence (P25929 whole entry): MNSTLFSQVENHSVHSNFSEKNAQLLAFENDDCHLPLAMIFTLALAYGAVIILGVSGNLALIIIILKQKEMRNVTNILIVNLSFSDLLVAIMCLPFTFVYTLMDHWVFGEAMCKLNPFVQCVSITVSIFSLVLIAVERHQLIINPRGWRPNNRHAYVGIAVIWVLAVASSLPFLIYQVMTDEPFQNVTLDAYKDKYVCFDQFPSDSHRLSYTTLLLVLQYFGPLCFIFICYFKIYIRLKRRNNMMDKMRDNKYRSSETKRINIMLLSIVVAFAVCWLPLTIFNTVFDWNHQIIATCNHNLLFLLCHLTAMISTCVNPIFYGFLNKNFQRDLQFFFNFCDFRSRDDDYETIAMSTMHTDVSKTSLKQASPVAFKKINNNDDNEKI
5-HT2B (h), sequence (P41595 whole entry): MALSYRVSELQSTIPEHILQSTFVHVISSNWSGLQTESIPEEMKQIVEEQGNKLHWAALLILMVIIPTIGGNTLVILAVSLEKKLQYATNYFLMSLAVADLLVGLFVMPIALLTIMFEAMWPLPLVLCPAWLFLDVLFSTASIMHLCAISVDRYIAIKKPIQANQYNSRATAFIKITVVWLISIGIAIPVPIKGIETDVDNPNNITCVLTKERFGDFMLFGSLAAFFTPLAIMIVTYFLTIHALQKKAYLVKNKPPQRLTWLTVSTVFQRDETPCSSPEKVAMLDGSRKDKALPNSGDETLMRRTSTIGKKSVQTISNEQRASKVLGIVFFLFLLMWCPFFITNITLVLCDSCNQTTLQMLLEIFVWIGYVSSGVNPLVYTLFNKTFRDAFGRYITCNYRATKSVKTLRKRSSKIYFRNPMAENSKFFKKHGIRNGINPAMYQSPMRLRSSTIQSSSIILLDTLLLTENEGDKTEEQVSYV
CB1 (h), sequence (P21554 whole entry): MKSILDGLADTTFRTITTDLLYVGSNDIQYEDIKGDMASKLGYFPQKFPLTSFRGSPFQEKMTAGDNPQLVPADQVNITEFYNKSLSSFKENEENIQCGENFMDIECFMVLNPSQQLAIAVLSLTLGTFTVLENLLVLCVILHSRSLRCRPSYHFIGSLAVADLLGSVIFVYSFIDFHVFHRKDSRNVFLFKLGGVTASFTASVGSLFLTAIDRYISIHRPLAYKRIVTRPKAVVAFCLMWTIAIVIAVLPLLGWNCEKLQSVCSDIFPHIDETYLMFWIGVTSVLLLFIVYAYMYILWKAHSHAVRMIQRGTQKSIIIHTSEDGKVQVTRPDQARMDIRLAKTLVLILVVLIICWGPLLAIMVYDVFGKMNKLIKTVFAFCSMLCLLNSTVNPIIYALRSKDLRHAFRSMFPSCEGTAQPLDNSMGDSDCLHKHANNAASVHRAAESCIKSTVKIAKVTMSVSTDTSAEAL
5-HT6 (h), sequence (P50406 whole entry): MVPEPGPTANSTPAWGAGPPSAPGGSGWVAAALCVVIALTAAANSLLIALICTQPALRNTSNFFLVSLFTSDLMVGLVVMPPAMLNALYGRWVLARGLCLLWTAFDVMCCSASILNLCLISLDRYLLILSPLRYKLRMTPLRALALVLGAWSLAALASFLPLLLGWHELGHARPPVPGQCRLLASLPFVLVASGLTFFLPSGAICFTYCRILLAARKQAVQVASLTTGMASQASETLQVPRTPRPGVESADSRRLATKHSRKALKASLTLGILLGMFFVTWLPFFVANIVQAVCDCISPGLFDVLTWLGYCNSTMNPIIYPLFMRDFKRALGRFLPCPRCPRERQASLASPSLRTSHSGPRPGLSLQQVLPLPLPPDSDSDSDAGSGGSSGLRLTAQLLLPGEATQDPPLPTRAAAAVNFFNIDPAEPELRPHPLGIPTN
beta 2 (h), sequence (P07550 whole entry): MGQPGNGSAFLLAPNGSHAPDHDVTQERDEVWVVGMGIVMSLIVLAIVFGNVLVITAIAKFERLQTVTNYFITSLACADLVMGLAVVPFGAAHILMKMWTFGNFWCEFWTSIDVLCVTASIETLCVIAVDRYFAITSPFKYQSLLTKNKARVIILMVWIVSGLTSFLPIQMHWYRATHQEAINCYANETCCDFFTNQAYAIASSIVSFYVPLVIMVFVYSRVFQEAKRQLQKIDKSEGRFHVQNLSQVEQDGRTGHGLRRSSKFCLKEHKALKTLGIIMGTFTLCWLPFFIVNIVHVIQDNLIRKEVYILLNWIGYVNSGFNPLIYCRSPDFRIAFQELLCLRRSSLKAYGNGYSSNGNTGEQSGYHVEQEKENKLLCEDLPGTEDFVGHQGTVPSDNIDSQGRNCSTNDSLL
A1 (h), sequence (P30542 whole entry): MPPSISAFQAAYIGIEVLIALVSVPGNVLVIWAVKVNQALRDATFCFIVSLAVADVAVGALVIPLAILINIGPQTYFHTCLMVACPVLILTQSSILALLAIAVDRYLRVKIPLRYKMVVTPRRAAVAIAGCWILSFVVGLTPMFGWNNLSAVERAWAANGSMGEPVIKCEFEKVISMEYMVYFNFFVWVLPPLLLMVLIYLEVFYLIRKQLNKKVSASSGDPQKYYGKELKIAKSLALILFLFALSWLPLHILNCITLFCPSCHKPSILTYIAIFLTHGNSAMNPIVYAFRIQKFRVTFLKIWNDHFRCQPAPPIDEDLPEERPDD
D2S (h), sequence (P14416 1-414 isoform P14416-2): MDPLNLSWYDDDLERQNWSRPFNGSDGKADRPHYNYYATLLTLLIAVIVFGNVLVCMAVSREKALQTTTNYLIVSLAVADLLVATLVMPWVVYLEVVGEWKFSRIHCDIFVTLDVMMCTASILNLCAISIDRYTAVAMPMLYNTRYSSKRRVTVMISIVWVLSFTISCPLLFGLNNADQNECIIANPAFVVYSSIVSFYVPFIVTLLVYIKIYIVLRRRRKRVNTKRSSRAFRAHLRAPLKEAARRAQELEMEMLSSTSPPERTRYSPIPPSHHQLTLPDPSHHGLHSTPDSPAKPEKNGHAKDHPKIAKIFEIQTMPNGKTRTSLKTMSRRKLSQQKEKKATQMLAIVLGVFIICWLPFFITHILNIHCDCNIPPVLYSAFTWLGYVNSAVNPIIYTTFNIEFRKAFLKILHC

For CCN(CCN(C)C)C(=O)CNCc1cc(C(N)=O)ccn1 [KDOAM-25], the “pIC50 KDM4 C” value (KDM4C) was 5.3 ± 0.28, the IC50 (NO66) was greater than 100 µM and the IC50 (EGLN1) was greater than 100 µM. For the same molecule, the “inhibition of endogenous KDM5 demethylases, potency in words” value [1] was “potencies similar to those seen in the overexpression assay”, the “PAMPA pH 5” value (PAMPA; pH 5) was less than 0.3 and the “PAMPA pH 6.5” value (PAMPA; pH 6.5) was less than 0.23. For the same molecule, the “PAMPA pH 7.4” value (PAMPA; pH 7.4) was less than 0.23, the “intrinsic clearance, in words” value [2] was “low intrinsic clearance” and the microsomal CLint ([2]; read-out: HLM Clint) was 11.9 µL/min/mg. For the same molecule, the “intrinsic clearance, in words” value [3] was “low intrinsic clearance”, the microsomal CLint ([3]; read-out: RLM Clint) was less than 1 µL/min/mg and the “hydrolysis of the amide, in words” value [4] was “did not show any hydrolysis”. The cell-cycle effect (MM1S cells) was “G1 cell-cycle arrest”, the “off-target inhibition in CEREP express panel, in words” value [5] was “no inhibition; also recorded: no off-target activity; also recorded: devoid of off-target activity” and the inhibition at 10 µM (A1 (h)) was -3%. The inhibition at 10 µM (beta 2 (h)) was 5%, the inhibition at 10 µM (CB1 (h)) was -1% and the inhibition at 10 µM (CCK1 (CCKA) (h)) was -3%. For the same molecule, the inhibition at 10 µM (D2S (h)) was 19%, the “% Inhibition of reference (10 µM)” value (GABA (non-selective)) was -4% and the inhibition at 10 µM (MC4 (h)) was 5%. It also gave an inhibition at 10 µM (Y1 (h)) of -7%, an inhibition at 10 µM (5-HT2B (h)) of 17% and an inhibition at 10 µM (5-HT6 (h)) of -3%. For the same molecule, the “% Inhibition of reference (10 µM)” value (sst (non-selective)) was 0% and the IC50 (KDM3A) was 31.6 µM.
